{"source": "patent US20060229290A1", "about": "“Staurosporine derivatives for hypereosinophilic syndrome” (priority 2003, published 2006)", "key": {"[1]": {"system": "FIP1L1-PDGFRαT674I", "assay_type": "in vivo, Balb/c mice", "details": "at time of death or trial endpoint", "protocol": "(§1) The retroviral construct MSCV-FIP1L1-PDGFRα-ires-EGFP and the corresponding T674I mutant were described previously (Cools et al., New England Journal of Medicine Vol. 348 No. 13, p 1201-1214 2003). The N659D mutation was introduced by PCR (polymerase chain reaction).\n(§2) Balb/c mice were purchased from Taconic (Germantown, N.Y.). Bone marrow transplant assays (injecting 1×10^6 cells per recipient mouse) and drug treatment of the mice was performed as described previously (Schwaller et al., 1998; Kelly et al.; Weisberg et al., 2002). Imatinib (stored as powder at 4° C.) was resuspended in a 0.5% methylcellulose (MC) solution in water prior to use. PKC412 (6% w/w in Gelucire® 44/14 (GC) (Gattefosse,France)) was stored at 4° C. as a waxy-solid formulation. Prior to administration, the GC/PKC412 waxy solid mixture was melted in a 44° C. water bath and diluted with sterilized deionized water. The animals were weighed at regular basis to ensure that a consistent dose (150 mg/kg/day for imatinib and 100 mg/kg/day for PKC412) of drug was administered. Dosing was performed every 12 hr for imatinib and every 24 hr for PKC412 by oral gavage of a maximum volume of 150 μl per animal using 22 gauge gavage needles (Hornbecks). Placebo animals received the same volume of a MC or GC solution. Any animals with splenomegaly (spleen boundary detectable at the dorsal medline) or that were moribund were sacrificed and analysed for signs of hematological disease. Peripheral blood was collected from the retroorbital cavity using a heparinized glass capillary. Blood smears were stained with Wright and Giemsa. Manual and automated (ADIVA 120 Hematology system, Bayer) total and differential blood cell counts were performed. Histopathologic exam of relevant organs (spleen, liver, heart, lungs, Intestine, hindlimb bones, and kidneys) and preparation of single-cell suspensions from spleen and bone marrow for flow cytometry was performed as described. In comparing the survival time of the mice, all times are measured from the day of BMT (bone marrow transplant), and the log rank test is used to attach a significance level to the difference in the survival curve."}, "[2]": {"target": "T1, FIP1L1-PDGFRα wild type (Homo sapiens, UniProt P16234)", "T1 construct": "FIP1L1 (N-terminal part of FIP1-like 1, Q6UN15); expressed in transfected cells; host or cells: Bone marrow cells retrovirally transduced with MSCV-FIP1L1-PDGFRα-ires-EGFP and transplanted into Balb/c mice; the other entry of the earlier key: FIP1L1 (Q6UN15, Pre-mRNA 3'-end-processing factor FIP1)", "T1 sequence (P16234 593-1089 limits assumed)": "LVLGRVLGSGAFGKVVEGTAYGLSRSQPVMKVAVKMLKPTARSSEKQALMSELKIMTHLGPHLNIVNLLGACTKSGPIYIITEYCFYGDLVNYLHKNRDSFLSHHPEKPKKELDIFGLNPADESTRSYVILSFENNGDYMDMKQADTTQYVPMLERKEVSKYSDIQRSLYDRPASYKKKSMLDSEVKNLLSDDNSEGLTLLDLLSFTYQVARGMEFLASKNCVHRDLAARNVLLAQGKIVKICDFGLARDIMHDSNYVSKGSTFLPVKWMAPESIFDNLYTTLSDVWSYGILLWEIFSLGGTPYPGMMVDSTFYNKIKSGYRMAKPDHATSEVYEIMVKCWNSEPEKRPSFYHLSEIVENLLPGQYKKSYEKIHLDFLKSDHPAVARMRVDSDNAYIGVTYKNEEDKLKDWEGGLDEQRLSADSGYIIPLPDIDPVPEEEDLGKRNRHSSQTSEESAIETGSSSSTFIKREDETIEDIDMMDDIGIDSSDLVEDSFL", "assay": "Bone marrow transplant model of FIP1L1-PDGFRα-induced myeloproliferative disease", "assay_type": "in vivo, Balb/c mice", "details": "at time of death or trial endpoint", "protocol": "as §1, §2"}, "[3]": {"details": "trial 1, FIP1L1-PDGFRαT674I, imatinib 150 mg/kg/day oral gavage"}, "[4]": {"details": "trial 2, FIP1L1-PDGFRα T674I, imatinib 150 mg/kg/day, PKC412 100 mg/kg/day, oral gavage"}, "[5]": {"details": "trial 1, FIP1L1-PDGFRα wild type, imatinib 150 mg/kg/day oral gavage"}, "[6]": {"details": "trial 2, FIP1L1-PDGFRα, imatinib 150 mg/kg/day, PKC412 100 mg/kg/day, oral gavage"}}, "note": "Like-named read-outs stand apart in the source and are kept apart here.", "data": [{"smiles": "Cc1ccc(NC(=O)c2ccc(CN3CCN(C)CC3)cc2)cc1Nc1nccc(-c2cccnc2)n1", "note": "[imatinib]", "values": [{"measurement": "WBC, mean", "setting": "[1]; [3]", "result": "4.965e+08", "unit": "mL⁻¹"}, {"measurement": "WBC, median", "setting": "[1]; [3]", "result": "5.077e+08", "unit": "mL⁻¹"}, {"measurement": "WBC, range", "setting": "[1]; [3]", "result": "434.6-535.8 ×10^6/ml"}, {"measurement": "WBC, mean", "setting": "[1]; [4]", "result": "5.482e+08", "unit": "mL⁻¹"}, {"measurement": "WBC, median", "setting": "[1]; [4]", "result": "5.915e+08", "unit": "mL⁻¹"}, {"measurement": "WBC, range", "setting": "[1]; [4]", "result": "364.9-657.6 ×10^6/ml"}, {"measurement": "WBC, mean", "setting": "[2]; [5]", "result": "6e+06", "unit": "mL⁻¹"}, {"measurement": "WBC, median", "setting": "[2]; [5]", "result": "5.2e+06", "unit": "mL⁻¹"}, {"measurement": "WBC, range", "setting": "[2]; [5]", "result": "4.6-9.4 ×10^6/ml"}, {"measurement": "WBC, mean", "setting": "[2]; [6]", "result": "4.8e+06", "unit": "mL⁻¹"}, {"measurement": "WBC, median", "setting": "[2]; [6]", "result": "4.8e+06", "unit": "mL⁻¹"}, {"measurement": "WBC, range", "setting": "[2]; [6]", "result": "4.4-5.3 ×10^6/ml"}]}]}
